Results on ten compounds are retold here after US6943191B1, “Disubstituted lavendustin A analogs and pharmaceutical composition comprising the analogs” (The United States of America as represented by the …, priority 1998, dated 2005).

Where two headings read alike, the source gives them in different places.

What is called IC50 is the point on the concentration scale where inhibition reaches its midpoint. In general, GI50 refers to the concentration giving 50% growth inhibition.

Assay [1] concerns panel of approximately 60 different human tumor cell lines. The assay is described as follows: National Cancer Institute drug screen, mean-graph parameters. It counts as cell-based. The following applies: mean over cell line panel, two days exposure; for GI50: Homo sapiens, 48 h, read-out: Tumor cell Mean log GI50 (converted). How it is done:
Compounds of the present invention also have been subjected to the drug screening procedure employed by the National Cancer Institute for the screening of drugs having possible anticancer utility. The screening procedure uses a diverse, disease-oriented panel consisting of approximately 60 different human tumor cell lines organized into disease-specific subpanels. The compounds of the present invention were tested over a range of concentrations for cytotoxic or growth-inhibitory effects against cell lines comprising the panel. The eight subpanels represented diverse histologies (leukemias, melanomas, and tumors of the lung, colon, kidney, breast, ovary, and brain).
Compounds of the present invention were tested over a period of two days. During this period the cells were continuously exposed to various concentrations of the compounds tested. The tests produced individual dose-responses, one for each cell line (i.e. one for each example), and the data were represented in dose-response curves. The data provided by these dose response curves were summarized using a mean-graph format.
To produce data for the mean-graph format, a compound concentration that produced a target level response was calculated for each cell line. Three different response parameters were evaluated. The first response parameter was the growth inhibition (“GI50”). GI50 is the concentration of compounds made according to the present invention that produced an apparent 50% decrease in the number of tumor cells relative to the appropriate control (not exposed to the compounds of the present invention) at the end of the incubation period.
The second response parameter was the total growth inhibition (“TGI”). TGI is the concentration at which the number of tumor cells remaining at the end of the incubation period substantially equal the number of tumor cells existing at the start of the incubation period.
The third response parameter was the lethal concentration (“LC50”) LC50 is the concentration of compounds made according to the present invention that caused an apparent 50 percent reduction in the number of tumor cells […] at the start of the incubation period.
In a typical GI50 mean graph, the relative position of the vertical reference line along the horizontal concentration axis was obtained by averaging the negative log10GI50 values for all the cell lines tested against the compound. Horizontal bars were then plotted for the individual negative log10GI50 values of each cell line relative to the vertical reference line. The GI50 graph thus provided a characteristic fingerprint for the compound, displaying the individual cell lines that are proportionately more sensitive than average (bars extending to the right of the reference line) or proportionately less sensitive than average (bars extending to the left of the reference line). The length of a bar was proportional to the difference between the log10GI50 value obtained with the particular cell line and the mean (represented by the vertical reference line).
Similar mean graphs were prepared for the TGI and LC50 response parameters.

The target of the next assay is T1, p210^bcr-abl (Homo sapiens, UniProt P00519).
T1 construct: immune complexes containing ^32P-labeled p210^bcr-abl were collected on protein Sepharose beads; BCR (N-terminal part of the breakpoint cluster region protein, natural fusion partner); endogenous in cells; host or cells: K562 cells (lysate, immunoprecipitated on Protein A-Sepharose); the other entry of the earlier key: BCR (P11274, Breakpoint cluster region protein)
The assay is described as follows: Inhibition of in vitro auto-phosphorylation of p210^bcr-abl, immune-complex kinase assay. It counts as biochemical. The following applies: immune complex kinase assay, 3 experiments, read-out: Enzyme Assays IC50 (μM) p210bcl-abl in vitro phosphorylation. How it is done:
Inhibition of in vitro auto-phosphorylation of p210^bcr-abl in immune-complex kinase assays were conducted as follows. K562 cell line cells were washed twice in […]. The washed cells were lysed in PLC lysis buffer 150 mM HEPES (pH 7.5), 150 mM NaCl, 10% (v/v) glycerol, 1% (v/v) Triton X-100, 1.5 mM MgCl2, 1 mM EGTA. 10 μg/ml leupeptin, 10 μg/ml aprotinin, 1 mM sodium orthovanadate. 10 mM sodium pyrophosphate, 100 mM sodium fluoride and 1 mM phenylmethyl sulfonyl fluoride| Cell lysates were centrifuged at 100,000 g for 15 minutes and the supernatant collected. Protein concentrations of the clarified supernatants were determined by the Bradford Protein Assay, and the same quantity of protein was immunoprecipitated from control (vehicle-treated) and drug-treated cells. Cell lysates were incubated and gently rocked at 4° C. for 4 hours overnight with antibodies. Immune complexes were collected by incubation with Protein A-Sepharose beads (Pharmacia, Piscataway N.J.) and immune complexes (beads) were washed three times with HNTG buffer [20 mM HEPES (pH 7.5), 10% glycerol, 0.1% Triton X-100, 150 mM NaCl and 1 mM sodium orthovanadate] to remove unbound material. Bound proteins were boiled for 5 minutes in 2×SDS sample buffer (63 mM Tris-HCl, ph 6.8; 10% glycerol; 2% SDS; 0.0025% bromophenol blue: and […] 2 mercaptoethanol) prior to SDS-PAGE. Proteins were resolved on 4-20% gradient mini gels from Novex Experimental Technology (San Diego, Calif.).
After SDS-PAGE, proteins were electrophoretically transferred onto Immobilon polyvinylidene difluoride (PVDF) membranes (Millipore, Bedford, Mass.) at 250 mA for 4 hours at 4° C. using 2× Tris glycine transfer buffer (50 mM Tris, glycine), 20% methanol and 0.1% SDS. Residual binding sites on the membrane were blocked by incubation in TTS (20 mM Tris pH 7.4, 0.9% NaCl and 0.05% Tween 20) containing 3% BSA overnight at 4° C. or for 4 hours at room temperature. Blots were incubated for 1-1.5 hours with TTS containing 0.3% BSA with 1 μg/ml of mouse anti-P-Tyr, 2 μg/ml of mouse anti-Grb2 or 1 μg/ml of rabbit anti-She antibody. Blots were washed three times for 6 minutes each with TTS containing 0.3% BSA and probed with a 1:1000 dilution of rabbit anti-mouse antibody or directly with [^125I]Protein A (Amersham, Arlington Heights, Ill.) in blocking solutions. Proteins were visualized by autoradiography (exposed for 1-2 days at −70° C.).
The p210^bcr-abl, protein immunoprecipitates were washed twice with HTNG buffer Immunoprecipitates were washed once with 50 mM Tris (pH 7.0) and distributed to each reaction in 20 μl of 20 mM PIPES [piperazine-N,N′-bis(ethanesulfonic acid)] (pH 7.0)−20 mM MnCl2. Then, 10 μl of compounds made according to the present invention at desired concentrations from working stock solution prepared in 20 mM PIPEs (pH 7.0)−20 mM MnCl2 were added to each reaction tube. Reactions were initiated with the addition of 10 μl of [γ-^33P]ATP (10 μCi per sample, 3000 Ci/mmol; Amersham), incubated for 20 minutes at 30° C., stopped by addition of 10 μl of 5×SDS sample buffer, heated at 100° C. for 5 minutes, and analyzed on 4-20% SDS-PAGE and by autoradiography.
To assess the effect of drugs added in vitro on the state of p210^bcr-abl in the immune complexes, K562 cells were labeled with ^32P, lysed in PLC buffer and immune complexes containing ^32P-labeled p210^bcr-abl were collected on protein Sepharose beads and beads were washed four times with HNTG buffer. Immune complexes were divided into several tubes in 30 μl of PLC buffer in the presence of compounds made as described herein.

The test system of the next assay is K562 cells. The assay is described as follows: K562 cell culture and growth assay, 6 day MTT. Type of assay: cell-based, human. To be noted: Homo sapiens, 144 h, K562, 6 days, 4 or more experiments. As to the method:
This example describes the procedure used for cell culture and growth assays. Human leukemia, Philadelphia-chromosome-positive CML cell line K562 was obtained from ATCC (Rockville, Md.). Cells were cultured in RPMI medium containing 10% fetal calf serum, 2 mM glutamine, 100 units/ml of penicillin and 100 μg/ml streptomycin Cells (2×10^3 cells/well) were incubated with increasing concentrations of compounds of the present invention dissolved in DMSO in a final volume of 200 μl in 96-well plates. Control cells were incubated with medium containing identical concentrations of the DMSO solvent. Growth of K562 cells was quantitated after 6 days by ability of living cells to reduce the yellow dye 3-(4,5-dimethylthiazolyl)-2,5-diphenyltetrazolium bromide (MTT) to a blue formazan product. Further information concerning this procedure is provided by Mossman T., “Rapid Colorimetric Assay for Cellular Growth and Survival—Application to Proliferation and Cytotoxicity Assays,” J. Immunol. Methods 1983, 65:55-63, which is incorporated herein by reference.

[2] abbreviates: Table 8, mean+S.E., read-out: IC50 (μM) 6 dMTT.
Setting [3] is: Table 9, mean ± S.E., read-out: IC50 (μM) 6dMTT.

T1 sequence (P00519 with tags, fused parts or gaps): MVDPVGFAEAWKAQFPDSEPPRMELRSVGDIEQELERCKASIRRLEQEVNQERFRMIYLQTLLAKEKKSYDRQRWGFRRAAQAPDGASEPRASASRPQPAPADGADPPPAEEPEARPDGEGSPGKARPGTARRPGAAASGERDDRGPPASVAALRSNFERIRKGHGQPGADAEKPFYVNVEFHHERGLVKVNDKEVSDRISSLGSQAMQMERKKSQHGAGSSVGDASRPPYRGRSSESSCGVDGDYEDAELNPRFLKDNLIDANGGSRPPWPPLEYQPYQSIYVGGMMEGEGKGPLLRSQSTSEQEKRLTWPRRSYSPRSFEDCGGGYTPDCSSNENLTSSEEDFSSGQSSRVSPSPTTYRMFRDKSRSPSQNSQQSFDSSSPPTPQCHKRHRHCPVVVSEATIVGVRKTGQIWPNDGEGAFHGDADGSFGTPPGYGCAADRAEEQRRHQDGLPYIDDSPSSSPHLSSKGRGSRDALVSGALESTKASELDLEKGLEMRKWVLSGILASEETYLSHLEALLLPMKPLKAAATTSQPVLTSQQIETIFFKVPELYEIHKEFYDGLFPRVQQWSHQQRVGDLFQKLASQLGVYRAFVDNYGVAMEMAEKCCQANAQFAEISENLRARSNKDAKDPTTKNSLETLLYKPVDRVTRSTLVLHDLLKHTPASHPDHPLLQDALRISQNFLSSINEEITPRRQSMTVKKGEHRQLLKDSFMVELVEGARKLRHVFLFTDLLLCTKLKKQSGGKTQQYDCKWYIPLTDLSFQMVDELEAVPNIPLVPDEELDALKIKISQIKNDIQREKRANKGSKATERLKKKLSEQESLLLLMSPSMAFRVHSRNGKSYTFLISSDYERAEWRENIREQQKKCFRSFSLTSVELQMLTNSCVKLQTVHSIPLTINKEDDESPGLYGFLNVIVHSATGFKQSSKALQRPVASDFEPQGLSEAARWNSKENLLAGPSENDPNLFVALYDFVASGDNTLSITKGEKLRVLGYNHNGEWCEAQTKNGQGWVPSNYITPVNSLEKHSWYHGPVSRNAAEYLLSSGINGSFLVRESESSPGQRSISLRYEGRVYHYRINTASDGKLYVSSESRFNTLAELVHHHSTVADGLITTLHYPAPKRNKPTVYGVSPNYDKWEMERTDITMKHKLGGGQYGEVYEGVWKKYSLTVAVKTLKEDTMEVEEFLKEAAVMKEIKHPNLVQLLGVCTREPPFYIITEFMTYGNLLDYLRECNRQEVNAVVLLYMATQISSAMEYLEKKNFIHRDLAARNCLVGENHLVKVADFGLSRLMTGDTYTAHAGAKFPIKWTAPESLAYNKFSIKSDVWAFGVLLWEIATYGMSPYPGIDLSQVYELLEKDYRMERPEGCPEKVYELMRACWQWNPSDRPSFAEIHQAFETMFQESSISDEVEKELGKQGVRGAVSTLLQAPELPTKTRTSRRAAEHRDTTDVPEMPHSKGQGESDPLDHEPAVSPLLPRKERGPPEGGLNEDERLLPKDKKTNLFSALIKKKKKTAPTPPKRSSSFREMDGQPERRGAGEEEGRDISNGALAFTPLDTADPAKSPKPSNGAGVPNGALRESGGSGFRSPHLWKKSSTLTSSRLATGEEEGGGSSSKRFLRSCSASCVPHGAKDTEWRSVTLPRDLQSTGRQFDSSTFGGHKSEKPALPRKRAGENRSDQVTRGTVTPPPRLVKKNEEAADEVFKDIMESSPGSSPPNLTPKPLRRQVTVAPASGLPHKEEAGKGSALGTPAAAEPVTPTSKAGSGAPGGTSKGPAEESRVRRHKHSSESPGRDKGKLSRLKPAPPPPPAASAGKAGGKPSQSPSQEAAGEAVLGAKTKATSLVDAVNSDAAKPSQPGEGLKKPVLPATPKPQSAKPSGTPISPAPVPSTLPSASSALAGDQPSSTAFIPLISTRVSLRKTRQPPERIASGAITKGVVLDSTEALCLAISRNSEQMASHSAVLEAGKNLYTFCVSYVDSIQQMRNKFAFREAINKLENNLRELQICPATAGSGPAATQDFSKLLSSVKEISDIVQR

Regarding `O=C(O)c1ccc(NCc2cc(O)ccc2O)cc1` [COOH / H / H], in assay [1] (Table 8), the “Tumor Cell Mean log GI50” value is −4.96 and the “Tumor Cell Mean log TGI” value was −4.60. Also, at p210^bcr-abl (Table 8, mean+S.E.), the IC50 worked out at 18.5 µM. Moreover, the IC50 in the assay with K562 cells (setting [2]) was 41.9 µM.

Turning to `CC(=O)c1ccc(NCc2cc(O)ccc2O)cc1` [Compound 17, 4′-acetophenone-1′-N-2,5-dihydroxybenzylamine], in assay [1] (Table 8), the “Tumor Cell Mean log GI50” value was −4.72 and the “Tumor Cell Mean log TGI” value is listed as −4.25. In addition, on p210^bcr-abl (Table 8, mean+S.E.), the IC50 is 1.03 µM. For the same compound, the IC50 in the assay with K562 cells (setting [2]) was 13 µM.

With `COC(=O)c1ccc(NCC2=CC(=O)C=CC2=O)cc1O` [Compound 20, 3′-hydroxy-4′-methylbenzoate-1′-N-p-quinone-2-methyl amine], in assay [1] (Table 9), the GI50 is 17 µM and the “Tumor Cell Mean log TGI” value is on record as −4.36. On p210^bcr-abl (Table 9, mean ± S.E.), the concentration for half-maximal inhibition (IC50) came to 5.15 ± 1.01 µM. Moreover, in the assay with K562 cells (setting [3]), the IC50 stood at 17 ± 0.3 µM.

Regarding `CC(C)OC(=O)c1ccc(NCC2=CC(=O)C=CC2=O)cc1` [Compound 21, 4′-isopropylbenzoate-1′-N-p-quinone-2-methyl amine], the GI50 in assay [1] (Table 9) is 26.9 µM. Besides, the “Tumor Cell Mean log TGI” value in assay [1] (Table 9) is on record as −4.55. In addition, the IC50 worked out at 13.7 ± 5.78 µM at p210^bcr-abl (Table 9, mean ± S.E.) and 17.4 ± 1 µM in the assay on K562 cells (setting [3]).

Regarding `O=C1C=CC(=O)C(CNc2ccc(C(=O)OC34CC5CC(CC(C5)C3)C4)cc2)=C1Br` [Compound 23, 4′-adamantylbenzoate-1′-N-2-bromo-p-quinone-3-methyl amine], in assay [1] (Table 9), the GI50 is 7.59 µM and the “Tumor Cell Mean log TGI” value is listed as −4.60. Besides, the IC50 on p210^bcr-abl (Table 9, mean ± S.E.) is 2.38 ± 0.45 µM. For the same compound, in the assay on K562 cells (setting [3]), the IC50 worked out at 24.8 ± 3.1 µM.

Consider `CC(C)(C)OC(=O)c1ccc(NCC2=C(Br)C(=O)C=CC2=O)cc1` [Compound 24, 4′-t-butylbenzoate-1′-N-2-bromo-p-quinone-3-methyl amine], for which, in assay [1] (Table 9), the GI50 was 17.8 µM and the “Tumor Cell Mean log TGI” value was −4.31. The IC50 at p210^bcr-abl (Table 9, mean ± S.E.) turned out to be 2.68 ± 1.33 µM. Besides, the IC50 in the assay with K562 cells (setting [3]) stood at 64.8 ± 1.22 µM.

For the compound `COC(=O)c1ccc(NCC2=C(Br)C(=O)C=CC2=O)cc1Cl` [Compound 25, 3′-chloro-4′-methylbenzoate-1′-N-2-bromo-p-quinone-3-methyl amine], in assay [1] (Table 9), the GI50 is 21.9 µM. Also, the “Tumor Cell Mean log TGI” value in assay [1] (Table 9) is −4.34. Moreover, the IC50 on p210^bcr-abl (Table 9, mean ± S.E.) was 2.35 ± 0.41 µM; in the assay with K562 cells (setting [3]), 17.5 ± 0.1 µM.

With `CC(C)OC(=O)c1ccc(NCC2=CC(=O)C=CC2=O)cc1Cl` [Compound 26, 3′-chloro-4′-isopropylbenzoate-1′-N-p-quinone-2-methyl amine], in assay [1] (Table 9), the GI50 was 9.55 µM and the “Tumor Cell Mean log TGI” value is given as −4.41. On p210^bcr-abl (Table 9, mean ± S.E.), the IC50 turned out to be 3.01 ± 1.75 µM. In the assay with K562 cells (setting [3]), the IC50 worked out at 27.7 ± 0.6 µM.

In the case of `O=C(O)c1cc(N(Cc2ccccc2O)Cc2cc(O)ccc2O)ccc1O` [Lavendustin A, 5-[(2,5-dihydroxy-benzyl)-(2-hydroxy-benzyl)-amino]-2-hydroxy-benzoic acid], in assay [1] (Table 8), the “Tumor Cell Mean log GI50” value is given as −4.06. Moreover, the “Tumor Cell Mean log TGI” value in assay [1] (Table 8) is −4.00. The IC50 at p210^bcr-abl (Table 8, mean+S.E.) was determined as 41.1 µM; in the assay on K562 cells (setting [2]) it was 44.7 µM.

As to `COP(=O)(OC)c1ccc(NCc2cc(O)ccc2O)cc1` [O═P(OCH3)2 / H / H, 4′-phenylphosphonate-1-N-2,5-dihydroxybenzylamine], the “Tumor Cell Mean log GI50” value in assay [1] (Table 8) is −4.61. In addition, the “Tumor Cell Mean log TGI” value in assay [1] (Table 8) is given as −4.23. In addition, the IC50 at p210^bcr-abl (Table 8, mean+S.E.) was found to be 0.49 µM; in the assay on K562 cells (setting [2]), 9.83 µM.
